Measurements from patent publication US9145346B1, “Process for 2,2,4,4-tetramethylcyclobutane-1,3-diol crystallization” (Eastman Chemical Company, priority 2014, dated 2015).

Assay: Solubility (saturated concentration) of cis-TMCD and trans-TMCD in various solvents, by gas chromatography
Type: physicochemical
Procedure: All concentrations were measured by gas chromatography. Water concentration was measured by Karl Fischer titrations.
The solubility of cis-TMCD and trans-TMCD in various solvents was determined by charging cis-TMCD, trans-TMCD, and the solvent or solvents of interest into a 120 ml jacketed glass vessel. The vessel was equipped with a stir bar in order to provide mixing and the jacket was used to control the temperature of the vessel contents. The vessel was equipped with charging and sampling ports on top of the vessel.
The slurry was allowed to stand for a time sufficient for the solids to saturate the solvent at the desired temperature. At that time, a sample of the solution was withdrawn from the cell using a fritted pipette so as to remove only the liquid phase. The sample was analyzed for cis-TMCD and trans-TMCD isomer content. These values represent the saturated concentration of each isomer at the sampling temperature.
After this, the cell contents were heated to the next desired temperature and the contents were held for another time interval sufficient to allow the slurry to equilibrate. A sample was then taken of the solution and analyzed. Following this procedure, solubility data was collected up to the final desired temperature.
The reported solubility of each isomer at a given temperature for a given solvent is expressed as a weight % relative to the saturated concentration of the isomer at the highest temperature reported for a given solvent.

- Relative solubility (2-Ethylhexanol, 0.7° C., relative to 89.8° C.): 10% relative wt %
- Relative solubility (2-Ethylhexanol, 12.5° C., relative to 89.8° C.): 16% relative wt %
- Relative solubility (2-Ethylhexanol, 24.7° C., relative to 89.8° C.): 21% relative wt %
- Relative solubility (2-Ethylhexanol, 40.0° C., relative to 89.8° C.): 29% relative wt %
- Relative solubility (2-Ethylhexanol, 49.9° C., relative to 89.8° C.): 37% relative wt %
- Relative solubility (2-Ethylhexanol, 60.2° C., relative to 89.8° C.): 46% relative wt %
- Relative solubility (2-Ethylhexanol, 69.3° C., relative to 89.8° C.): 58% relative wt %
- Relative solubility (2-Ethylhexanol, 79.3° C., relative to 89.8° C.): 76% relative wt %
- Relative solubility (2-Ethylhexanol, 89.8° C., relative to 89.8° C.): 100% relative wt %
- Relative solubility (2-Ethylhexyl Acetate, 5.9° C., relative to 79.4° C.): 5% relative wt %
- Relative solubility (2-Ethylhexyl Acetate, 15.5° C., relative to 79.4° C.): 8% relative wt %
- Relative solubility (2-Ethylhexyl Acetate, 25.1° C., relative to 79.4° C.): 12% relative wt %
- Relative solubility (2-Ethylhexyl Acetate, 40.5° C., relative to 79.4° C.): 22% relative wt %
- Relative solubility (2-Ethylhexyl Acetate, 49.8° C., relative to 79.4° C.): 31% relative wt %
- Relative solubility (2-Ethylhexyl Acetate, 49.9° C., relative to 79.4° C.): 32% relative wt %
- Relative solubility (2-Ethylhexyl Acetate, 60.5° C., relative to 79.4° C.): 47% relative wt %
- Relative solubility (2-Ethylhexyl Acetate, 70.3° C., relative to 79.4° C.): 74% relative wt %
- Relative solubility (2-Ethylhexyl Acetate, 79.4° C., relative to 79.4° C.): 100% relative wt %
- Relative solubility (2-Ethylhexyl Acetate, −5.0° C., relative to 79.4° C.): 4% relative wt %
- Relative solubility (CHDM, 69.0° C., relative to 106.9° C.): 27% relative wt %
- Relative solubility (CHDM, 79.2° C., relative to 106.9° C.): 58% relative wt %
- Relative solubility (CHDM, 88.9° C., relative to 106.9° C.): 69% relative wt %
- Relative solubility (CHDM, 95.6° C., relative to 106.9° C.): 85% relative wt %
- Relative solubility (CHDM, 106.9° C., relative to 106.9° C.): 100% relative wt %
- Relative solubility (Dimethyl Carbonate, 6.2° C., relative to 70.1° C.): 7% relative wt %
- Relative solubility (Dimethyl Carbonate, 16.3° C., relative to 70.1° C.): 9% relative wt %
- Relative solubility (Dimethyl Carbonate, 25.7° C., relative to 70.1° C.): 14% relative wt %
- Relative solubility (Dimethyl Carbonate, 40.5° C., relative to 70.1° C.): 28% relative wt %
- Relative solubility (Dimethyl Carbonate, 54.7° C., relative to 70.1° C.): 55% relative wt %
- Relative solubility (Dimethyl Carbonate, 70.1° C., relative to 70.1° C.): 100% relative wt %
- Relative solubility (Ethanol, 5.3° C., relative to 60.3° C.): 47% relative wt %
- Relative solubility (Ethanol, 14.3° C., relative to 60.3° C.): 52% relative wt %
- Relative solubility (Ethanol, 25.5° C., relative to 60.3° C.): 68% relative wt %
- Relative solubility (Ethanol, 39.9° C., relative to 60.3° C.): 81% relative wt %
- Relative solubility (Ethanol, 50.1° C., relative to 60.3° C.): 88% relative wt %
- Relative solubility (Ethanol, 60.3° C., relative to 60.3° C.): 100% relative wt %
- Relative solubility (Ethyl Acetate, 4.2° C., relative to 54.9° C.): 15% relative wt %
- Relative solubility (Ethyl Acetate, 15.0° C., relative to 54.9° C.): 24% relative wt %
- Relative solubility (Ethyl Acetate, 26.2° C., relative to 54.9° C.): 37% relative wt %
- Relative solubility (Ethyl Acetate, 40.5° C., relative to 54.9° C.): 62% relative wt %
- Relative solubility (Ethyl Acetate, 54.9° C., relative to 54.9° C.): 100% relative wt %
- Relative solubility (Ethyl Acetate, −5.1° C., relative to 54.9° C.): 12% relative wt %
- Relative solubility (Ethylene Glycol, 26.5° C., relative to 91.4° C.): 25% relative wt %
- Relative solubility (Ethylene Glycol, 36.2° C., relative to 91.4° C.): 32% relative wt %
- Relative solubility (Ethylene Glycol, 48.5° C., relative to 91.4° C.): 42% relative wt %
- Relative solubility (Ethylene Glycol, 61.5° C., relative to 91.4° C.): 57% relative wt %
- Relative solubility (Ethylene Glycol, 72.1° C., relative to 91.4° C.): 68% relative wt %
- Relative solubility (Ethylene Glycol, 82.2° C., relative to 91.4° C.): 87% relative wt %
- Relative solubility (Methanol, 16.9° C., relative to 41.3° C.): 86% relative wt %
- Relative solubility (Methanol, 25.6° C., relative to 41.3° C.): 91% relative wt %
- Relative solubility (Methanol, 41.3° C., relative to 41.3° C.): 100% relative wt %
- Relative solubility (Methanol, −2.5° C., relative to 41.3° C.): 77% relative wt %
- Relative solubility (Methyl Acetate, 5.9° C., relative to 49.8° C.): 15% relative wt %
- Relative solubility (Methyl Acetate, 15.5° C., relative to 49.8° C.): 22% relative wt %
- Relative solubility (Methyl Acetate, 25.1° C., relative to 49.8° C.): 33% relative wt %
- Relative solubility (Methyl Acetate, 40.5° C., relative to 49.8° C.): 59% relative wt %
- Relative solubility (Methyl Acetate, 49.8° C., relative to 49.8° C.): 100% relative wt %
- Relative solubility (Methyl Acetate, −5.0° C., relative to 49.8° C.): 9% relative wt %
- Relative solubility (Methyl i-Butyl Carbinol, 9.4° C., relative to 81.9° C.): 20% relative wt %
- Relative solubility (Methyl i-Butyl Carbinol, 20.4° C., relative to 81.9° C.): 25% relative wt %
- Relative solubility (Methyl i-Butyl Carbinol, 31.1° C., relative to 81.9° C.): 31% relative wt %
- Relative solubility (Methyl i-Butyl Carbinol, 40.0° C., relative to 81.9° C.): 40% relative wt %
- Relative solubility (Methyl i-Butyl Carbinol, 49.5° C., relative to 81.9° C.): 49% relative wt %
- Relative solubility (Methyl i-Butyl Carbinol, 60.0° C., relative to 81.9° C.): 62% relative wt %
- Relative solubility (Methyl i-Butyl Carbinol, 69.5° C., relative to 81.9° C.): 78% relative wt %
- Relative solubility (Methyl i-Butyl Carbinol, 81.9° C., relative to 81.9° C.): 100% relative wt %
- Relative solubility (i-Butyl Acetate, 4.8° C., relative to 90.1° C.): 5% relative wt %
- Relative solubility (i-Butyl Acetate, 16.9° C., relative to 90.1° C.): 8% relative wt %
- Relative solubility (i-Butyl Acetate, 25.6° C., relative to 90.1° C.): 11% relative wt %
- Relative solubility (i-Butyl Acetate, 41.3° C., relative to 90.1° C.): 19% relative wt %
- Relative solubility (i-Butyl Acetate, 56.2° C., relative to 90.1° C.): 32% relative wt %
- Relative solubility (i-Butyl Acetate, 70.2° C., relative to 90.1° C.): 52% relative wt %
- Relative solubility (i-Butyl Acetate, 90.1° C., relative to 90.1° C.): 100% relative wt %
- Relative solubility (i-Butyl Acetate, −2.5° C., relative to 90.1° C.): 5% relative wt %
- Relative solubility (n-Butanol, 5.9° C., relative to 60.5° C.): 46% relative wt %
- Relative solubility (n-Butanol, 15.5° C., relative to 60.5° C.): 51% relative wt %
- Relative solubility (n-Butanol, 25.1° C., relative to 60.5° C.): 59% relative wt %
- Relative solubility (n-Butanol, 40.5° C., relative to 60.5° C.): 73% relative wt %
- Relative solubility (n-Butanol, 49.8° C., relative to 60.5° C.): 86% relative wt %
- Relative solubility (n-Butanol, 49.9° C., relative to 60.5° C.): 86% relative wt %
- Relative solubility (n-Butanol, 60.5° C., relative to 60.5° C.): 100% relative wt %
- Relative solubility (n-Butanol, −5.0° C., relative to 60.5° C.): 41% relative wt %
- Relative solubility (n-Butyl Propionate, 6.5° C., relative to 91.9° C.): 4% relative wt %
- Relative solubility (n-Butyl Propionate, 16.8° C., relative to 91.9° C.): 7% relative wt %
- Relative solubility (n-Butyl Propionate, 27.7° C., relative to 91.9° C.): 10% relative wt %
- Relative solubility (n-Butyl Propionate, 41.7° C. (sample 4), relative to 91.9° C.): 17% relative wt %
- Relative solubility (n-Butyl Propionate, 41.7° C. (sample 5), relative to 91.9° C.): 18% relative wt %
- Relative solubility (n-Butyl Propionate, 52.0° C., relative to 91.9° C.): 27% relative wt %
- Relative solubility (n-Butyl Propionate, 61.5° C., relative to 91.9° C.): 37% relative wt %
- Relative solubility (n-Butyl Propionate, 69.1° C., relative to 91.9° C.): 50% relative wt %
- Relative solubility (n-Butyl Propionate, 80.7° C., relative to 91.9° C.): 74% relative wt %
- Relative solubility (n-Butyl Propionate, 91.9° C., relative to 91.9° C.): 100% relative wt %
- Relative solubility (n-Propyl Propionate, 7.0° C., relative to 72.2° C.): 10% relative wt %
- Relative solubility (n-Propyl Propionate, 17.1° C., relative to 72.2° C.): 14% relative wt %
- Relative solubility (n-Propyl Propionate, 26.7° C., relative to 72.2° C.): 21% relative wt %
- Relative solubility (n-Propyl Propionate, 37.4° C., relative to 72.2° C.): 30% relative wt %
- Relative solubility (n-Propyl Propionate, 42.4° C., relative to 72.2° C.): 34% relative wt %
- Relative solubility (n-Propyl Propionate, 52.2° C., relative to 72.2° C.): 50% relative wt %
- Relative solubility (n-Propyl Propionate, 62.9° C., relative to 72.2° C.): 72% relative wt %
- Relative solubility (n-Propyl Propionate, 72.2° C., relative to 72.2° C.): 100% relative wt %
Structure (SMILES): CC1(C)[C@H](O)C(C)(C)[C@@H]1O [cis-TMCD, cis-2,2,4,4-tetramethylcyclobutane-1,3-diol]
